Measured values reported in article PMC12735688, “Discovery and Activity Evaluation of Novel Dibenzoxazepinone Derivatives as Glycogen Phosphorylase Inhibitors” (Molecules, 2025).
Structures can show the parent of a compound that is named as a salt. Where two headings read alike, the source gives them in different places.

Tests used:
[1] = target: T1, rabbit muscle glycogen phosphorylase a (RMGPa) (Oryctolagus cuniculus, UniProt P00489); design: method as in PMID 33906369; settings: previously reported parent compound; read-out: IC50 (RMGPa inhibition) of parent compound; cited from earlier work
T1 construct: purchased
T1 sequence (P00489 2-843 limits assumed): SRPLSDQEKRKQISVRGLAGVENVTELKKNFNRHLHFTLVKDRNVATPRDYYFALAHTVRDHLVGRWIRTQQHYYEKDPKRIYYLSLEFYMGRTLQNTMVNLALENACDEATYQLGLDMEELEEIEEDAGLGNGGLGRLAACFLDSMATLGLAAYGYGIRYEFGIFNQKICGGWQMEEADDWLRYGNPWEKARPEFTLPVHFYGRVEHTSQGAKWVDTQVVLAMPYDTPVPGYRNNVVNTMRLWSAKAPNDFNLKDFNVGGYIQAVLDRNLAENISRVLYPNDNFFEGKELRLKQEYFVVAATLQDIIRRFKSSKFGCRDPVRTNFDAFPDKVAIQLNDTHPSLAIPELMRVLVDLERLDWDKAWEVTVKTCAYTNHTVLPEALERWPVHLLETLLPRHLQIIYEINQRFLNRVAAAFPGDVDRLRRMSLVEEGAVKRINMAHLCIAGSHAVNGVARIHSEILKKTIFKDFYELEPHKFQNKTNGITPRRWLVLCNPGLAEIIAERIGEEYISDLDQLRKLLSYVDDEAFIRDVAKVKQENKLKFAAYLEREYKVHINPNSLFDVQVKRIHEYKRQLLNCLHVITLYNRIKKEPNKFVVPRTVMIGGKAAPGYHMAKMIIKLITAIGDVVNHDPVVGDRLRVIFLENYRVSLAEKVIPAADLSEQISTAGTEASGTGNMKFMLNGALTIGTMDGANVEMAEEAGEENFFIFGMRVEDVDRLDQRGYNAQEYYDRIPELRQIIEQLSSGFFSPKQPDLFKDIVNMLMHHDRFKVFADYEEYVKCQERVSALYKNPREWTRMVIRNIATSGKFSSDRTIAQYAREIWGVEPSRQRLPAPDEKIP

[2] = target: T1, rabbit muscle glycogen phosphorylase a (RMGPa); assay: RMGPa enzyme inhibition assay (phosphate release, malachite green); assay type: biochemical; settings: mean ± S.D. of three determinations; NI means no inhibition
Procedure: The synthesized compounds were evaluated in an enzyme inhibition assay against rabbit muscle glycogen phosphorylase a (RMGPa), a commercially available enzyme that shares considerable sequence similarity with human liver GPa. As described previously, the activity of RMGPa was measured by detecting the release of phosphate from glucose-1-phosphate in the direction of glycogen synthesis. PSN-357, a GP inhibitor in clinical Phase II, was used as positive control.
The inhibitory activity of the test compounds against RMGPa was evaluated using a microplate reader (Bio-Rad Laboratories, Berkeley, CA, USA), based on the release of inorganic phosphate during glycogenolysis. First, the test compounds were dissolved in DMSO and diluted to various concentrations for IC50 determination. A 100 μL aliquot of buffer, containing 50 mM Hepes (pH = 7.2), 100 mM potassium chloride (KCl), 2.5 mM magnesium chloride (MgCl2), 0.5 mM glucose-1-phosphate, 1 mg/mL glycogen, and the test compound solution, was added to a 96-well Costar microplate (Corning Inc., New York, NY, USA). The reaction mixture was incubated at 22 °C for 25 min, after which 150 μL of solution containing 10 mg/mL ammonium molybdate and 0.38 mg/mL malachite green was added to stop the reaction. The absorbance of phosphate was measured at 620 nm. IC50 values were determined by fitting the inhibition data to a dose–response curve using a logistic derivative equation.

[3] = system: hyperglycemic mice induced by adrenaline; assay: Acute hypoglycemic experiment in adrenaline-induced hyperglycemic mice; assay type: in vivo, C57BL/6J mice; settings: 400 mg/kg single oral dose, about 2 h after administration; model group 8.91 ± 0.69; p < 0.01; mean ± SEM
Procedure: First, its ability was investigated by oral administration with one dose of 0.5% CMC-NA (model group) or compound Id at different concentrations (12.5, 25 and 50 mg/kg) for treatment. Metformin (400 mg/kg) was selected as a positive control.
The animal experiments were conducted following the method described in reference. Male C57BL/6J mice (6–8 weeks old, 18–20 g) were obtained from Beijing Huafukang Biotechnology Co., Ltd. (Beijing, China), maintained under standard conditions (food/water ad libitum), and acclimatized for 1 week. After acclimatization, baseline blood glucose was measured via tail vein sampling. Subsequently, mice were randomized into 6 groups (10/group) by blood glucose/body weight, with no significant differences in initial blood glucose (mean ± SEM). Post-grouping, daily oral 0.5% CMC-Na (as vehicle) was given. On the night before the experimental day, mice were fasted overnight with free access to water. On the experimental day, mice were orally administered Compound Id (50, 25, 12.5 mg/kg), metformin (400 mg/kg, as positive control), or 0.5% CMC-Na, followed by subcutaneous 0.2 mg/kg adrenaline to induce hyperglycemia. Finally, blood glucose was measured/recorded at 0, 30, 60, 90, and 120 min post-administration via JPS-5 meter.

## O=C1CCOc2ccc(NC(=O)c3cc4cc(Cl)ccc4[nH]3)cc2N1 [Compound 1]
[1]
  IC50: 250 ± 50 nM

## O=C(Nc1ccc2c(c1)NC(=O)c1ccc(C(F)(F)F)cc1O2)c1cc2cc(O)ccc2[nH]1 [IIb]
[2]
  IC50: 723 ± 82 nM

## COc1ccc2[nH]c(C(=O)Nc3ccc4c(c3)NC(=O)c3ccc(C(F)(F)F)cc3O4)cc2c1 [IIc]
[2]
  IC50: 840 ± 50 nM

## COc1cnc2[nH]c(C(=O)Nc3ccc4c(c3)NC(=O)c3ccc(C(F)(F)F)cc3O4)cc2c1 [IId]
[2]
  IC50: 1790 ± 104 nM

## Cc1ccc2[nH]c(C(=O)Nc3ccc4c(c3)NC(=O)c3ccc(C(F)(F)F)cc3O4)cc2c1 [IIf]
[2]
  IC50: 338 ± 55 nM

## CCCc1cc(OC)c2c(c1)C(=O)Nc1cc(NC(=O)c3cc4cc(Cl)ccc4[nH]3)ccc1O2 [Ie, 5-chloro-N-(3-methoxy-11-oxo-5-propyl-10,11-dihydrodibenzo[b,f][1,4]oxazepin-8-yl)-1H-indole-2-carboxamide]
[2]
  IC50: 2180 ± 156 nM

## CN(C)C(=N)N=C(N)N [Metformin, Metformin hydrochloride, reference compound]
[3]
  blood glucose: 6.57 ± 0.71 mmol/L
